According to patent US7964734B2, “Raloxifene acid addition salts and/or solvates thereof, improved method for purification of said raloxifene acid addition salts and/or solvates thereof and pharmaceutical compositions comprising these” (A/S Gea Farmaceutisk Fabrik, priority 2002, dated 2011):
Where a name gives a salt, the structure may show the parent alone. Read-outs that look alike come from different tables or passages of the source.

How the values were obtained:
[1] = Intrinsic dissolution rate, Rotation Disc Method (USP 1087); assay type: physicochemical; settings: 37° C., 100 rpm, average of two measurements
Experimental: The raloxifene hydrochloride salt used in these experiments was purchased from Otto Bradt GmbH (batch MA/RF/12003) while the rest of the raloxifene acid additions salts were prepared according to Example 1-6.
The experiments were carried out following the procedure of Rotation Disc Method (USP 1087) using Vankel VK 7000 Intrinsic dissolution apparatus (Vankel Technology group, W. Vankelion) equipped with Vankel 12-4120 intrinsic disc having a surface area of 0.5 cm^2, Vankel 12-4130 surface plate, Vankel 12-4140 punch, and Vankel shaft and holder (surface area: 0.5 cm^2) and operating at a rotation rate of 100 rpm.
The buffer solution is handled in a 750 ml measuring bottle, degassed and transferred into a dissolution vessel. Approximately 100 mg compound is weighed out and transferred into an intrinsic disc. Said disc is then assembled, and to said disc a disc is applied in the IR-press at a pressure of 5 kN for 1 minute. The disc is started and samples of 10 ml are collected by use of “pressure vials” after 1, 10, 20, 30, 45, and 60 minutes. The change of volume is corrected using the equation: Q=Vs×(sumCn−1)+Cn×Vt wherein Q designates the volume at the time t, C designates the concentration of the sample n, Vt designates the volume of the liquid collected at the time t, and Vs designates the volume of the sample collected. The sample is measured against a standard using HPLC. In these measurements a 5 microns 3.9×150 mm column filled with symmetrical material is employed and as eluant a 20 mM phosphate buffer KH2PO4, pH 6.8 mixed with acetonitrile and tetrahydrofuran in the ratio 55:35:10 is used.
The standard is prepared by use of following procedure: 20 mg of salt is dissolved initially in 100 ml of MeOH and then 1 ml of this solution is transferred to a 50 ml flask with water and then 2 ml to a 20 ml flask of buffer in question.
pH 1: a 0.1 M HCl is used.
0.025 M Phosphate buffer solution pH 2.0: 3.40 g of potassium dihydrogen phosphate is dissolved in 900 ml of water. Then pH is adjusted to 2.0 with phosphoric acid and diluted to 1000.0 ml with water. Exactly 5.85 g of NaCl is added to 1 L of buffer.
0.025 M Phosphate buffer solution pH 3.0: 3.40 g of potassium dihydrogen phosphate is dissolved in 900 ml of water. Then pH is adjusted to 3.0 with phosphoric acid and diluted to 1000.0 ml with water. Exactly 5.85 g of NaCl is added to 1 L of buffer.
0.022 M Phosphate buffer solution pH 4.0: 3.0 g of potassium dihydrogen phosphate is dissolved in 800 ml of water. Then pH is adjusted with 1 M potassium hydroxide and phosphoric acid and diluted to 1000.0 ml with water. Exactly 5.85 g of NaCl is added to 1 L of buffer. 0.02 M Phosphate buffer solution pH 5.0: 2.72 g of potassium dihydrogen phosphate is dissolved in 800 ml of water. Then pH is adjusted with 1 M potassium hydroxide and diluted to 1000.0 ml with water. Exactly 5.85 g of NaCl is added to 1 L of buffer.

[2] = cited from earlier work
[3] = Dissolution test in dilute acid, evaluated visually; assay type: physicochemical
Experimental: 60 mg raloxifene HCl was transferred to a dissolution vessel containing one liter 0.1 M HCl. The mixture was vigorously mixed and left at room temperature over night. Subsequently the dissolution was evaluated visually.
A similar dissolution test was performed using 60 mg raloxifene hydrochloride in 0.1 M phosphoric acid.

[4] = Solubility in aqueous solvents/media (general statement); assay type: physicochemical; settings: versus aqueous media
[5] = Hydrochloride, pH 1 (0.1 M HCl)
[6] = Phosphate, pH 2, chloride 0.1 M
[7] = Phosphate, pH 3, chloride 0.1 M
[8] = Phosphate, pH 4, chloride 0.1 M
[9] = Phosphate, pH 5, chloride 0.1 M

Row | Compound | intrinsic dissolution rate (IDR) [1, 5] [μmol/min * cm^2] | intrinsic dissolution rate (IDR) [1, 6] [μmol/min * cm^2] | intrinsic dissolution rate (IDR) [1, 7] [μmol/min * cm^2] | intrinsic dissolution rate (IDR) [1, 8] [μmol/min * cm^2] | intrinsic dissolution rate (IDR) [1, 9] [μmol/min * cm^2] | solubility in aqueous solvents ([2]; hydrochloride) | dissolution evaluated visually ([3]; 60 mg in 0.1 M phosphoric acid, similar test) | dissolution evaluated visually ([3]; 60 mg in one liter 0.1 M HCl, vigorously mixed, room temperature over night) | solubility in aqueous media comprising hydrochloric acid [4] | solubility in aqueous solvents [2]
1 | C[C@H](O)C(=O)O.O=C(c1ccc(OCCN2CCCCC2)cc1)c1c(-c2ccc(O)cc2)sc2cc(O)ccc12 [L-lactate hemihydrate] | 0.0475 | 0.0453 | 0.0403 | 0.0190 | 0.0091 | – | – | – | – | –
2 | CC(O)C(=O)O.O=C(c1ccc(OCCN2CCCCC2)cc1)c1c(-c2ccc(O)cc2)sc2cc(O)ccc12 [DL-lactate hemihydrate, [6-hydroxy-2-(4-hydroxyphenyl)benzo[b]thien-3-yl][4-[2-(1-piperidinyl)ethoxy]phenyl-, DL-lactate] | 0.0056 | 0.0119 | 0.0062 | 0.0212 | 0.0215 | – | – | – | – | –
3 | O=C(c1ccc(OCCN2CCCCC2)cc1)c1c(-c2ccc(O)cc2)sc2cc(O)ccc12 [Hydrochloride, raloxifene hydrochloride, reference compound] | 0.0022 | 0.0026 | 0.0022 | 0.0022 | 0.0044 | fairly soluble | all raloxifene hydrochloride seemed to be dissolved | Very little of the initial added amount of raloxifene hydrochloride was dissolved | decreases significant | –
4 | [6-hydroxy-2-(4-hydroxyphenyl)benzo[b]thien-3-yl][4-[2-(1-piperidinyl)ethoxy]phenyl-, succinate | 0.0550 | 0.0228 | 0.0271 | 0.0127 | 0.0119 | – | – | – | – | –
5 | O=C(c1ccc(OCCN2CCCCC2)cc1)c1c(-c2ccc(O)cc2)sc2cc(O)ccc12 [raloxifene as free base, 6-hydroxy-2-(4-hydrophenyl)-3-[4-(2-piperidinoethoxy)-benzoyl]benzo-[b]-thiophene] | – | – | – | – | – | – | – | – | – | only sparingly soluble
6 | C[C@H](O)C(=O)O.O=C(c1ccc(OCCN2CCCCC2)cc1)c1c(-c2ccc(O)cc2)sc2cc(O)ccc12 [L-Lactate ¼-hydrate] | 0.0035 | 0.0028 | 0.0067 | 0.0324 | 0.0247 | – | – | – | – | –
7 | O=C(O)CC(=O)O.O=C(c1ccc(OCCN2CCCCC2)cc1)c1c(-c2ccc(O)cc2)sc2cc(O)ccc12 [Malonate] | 0.0229 | 0.0173 | 0.0148 | 0.0136 | 0.0112 | – | – | – | – | –
